According to patent publication US6723710B2, “Compositions for inhibiting arginase activity” (The Trustees of the University of Pennsylvania, priority 1997, dated 2004):
pIC50, pKd, pKi: −log10 of the molar value.

Experiments:
rat liver arginase [1] = molecular target: T1, rat liver arginase (Rattus norvegicus, UniProt P07824); assay: [14C-guanidino]-arginine arginase activity assay (Example 2); format: biochemical; details: 100 millimolar CHES, pH 9.0, 1 millimolar arginine; read-out: IC50 for inhibition of arginase
T1 sequence (P07824 1-323): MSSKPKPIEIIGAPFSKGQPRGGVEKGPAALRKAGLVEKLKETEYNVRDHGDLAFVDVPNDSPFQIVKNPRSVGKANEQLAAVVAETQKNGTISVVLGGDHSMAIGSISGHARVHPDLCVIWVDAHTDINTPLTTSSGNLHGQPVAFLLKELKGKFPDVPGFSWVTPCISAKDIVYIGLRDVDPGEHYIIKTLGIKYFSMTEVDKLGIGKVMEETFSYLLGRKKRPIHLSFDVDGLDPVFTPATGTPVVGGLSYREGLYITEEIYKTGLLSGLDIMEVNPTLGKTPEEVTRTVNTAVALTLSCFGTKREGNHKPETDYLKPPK
Experimental: Arginase activity was assessed using the ^(14C-guanidino)-arginine assay of Rüegg et al. (1980, Anal. Biochem. 102:206-212), as described (Reczkowski et al., 1994, Arch. Biochem. Biophys. 312:31-37). […] […] et al., 1994, Biochem. Biophys. Res.

liver arginase activity = assay: arginase activity in liver homogenate; format: biochemical, opossum
Excerpt: (§1) Tissue samples of the opossum internal anal sphincter muscle (IAS), adjoining rectal tissue, liver, and brain were homogenized using an ULTRATURRAX™ tissue homogenizer (Tekamr, Cincinnati, Ohio) in a solution comprising 10 millimolar Tris-HCl, 150 millimolar KCl, and 25 millimolar MnCl2, at pH 7.4. The homogenates were dialyzed overnight against the same solution. Dialyzed homogenates were centrifuged to remove insoluble material and concentrated with Amicon CENTRICON™ 30 microconcentrators to yield stock protein preparations having protein concentrations of 2.4 milligrams per milliliter for IAS smooth muscle, 3.6 milligrams per milliliter for rectal smooth muscle, 3 milligrams per milliliter for brain, and 17.5 milligrams per milliliter for liver. Protein concentrations were estimated with the Pierce Coomassie Protein Reagent kit using bovine serum albumin as a standard.
(§2) Arginase activity in tissue homogenates was evaluated using the radioactive L-[guanidino^14C]arginine assay of Rüegg and Russell (1980, Anal. Biochem. 102:206-212). Assays were performed using a solution comprising 100 millimolar CHES-NaOH and 0.1 millimolar MnCl2 at pH 9.0. The reactions were initiated by addition of 5 microliters of tissue homogenate to 45 microliters of reaction mixture that contained the CHES buffer, the appropriate concentration of arginine (0.5 to 5 millimolar) and about 5.0×10^4 counts per minute of L-[guanidino-^14C]arginine. IAS, rectal muscle, and brain homogenates were incubated with the assay mixture at room temperature for one hour, and the liver sample was incubated for 5 minutes. The reactions were stopped by addition of 200 microliters of a stop solution containing 0.25 molar acetic acid, 7 molar urea, and 10 millimolar arginase at pH 4.5. Arginase has essentially no activity at the low pH of the stop solution. [^14C] Urea was separated from non-reacted L-[guanidino-^14C]arginine by treatment with 200 μl of 1:1 v/v slurry of DOWEX™ 50W-X8 in water, and quantitated by adding 200 microliters of the supernatant from the DOWEX™ treatment to 3 milliliters of LIQUISCENT™ (National Diagnostics) for liquid scintillation counting in a Beckman LS 5000CE counter. The data were analyzed using double-reciprocal plots of the initial velocity measurements; standard errors were determined by regression analysis.
(§3) Assays in the presence of the inhibitors N^ω-hydroxy-L-arginine (1 to 100 micromolar) and ABHA (0.05 to 100 micromolar) were performed as described above. The amino acid D-ornithine served as a control in these experiments, since this amino acid, unlike L-omithine, is not an inhibitor of arginase.

IAS arginase activity = assay: arginase activity in IAS homogenate; format: biochemical, opossum
Excerpt: as §1
as §2, with “The reactions were stopped by addition of 200 microliters of a stop solution containing 0.25 molar acetic acid, 7 molar urea, and 10 millimolar arginase at pH 4.5. Arginase has essentially no activity at the low pH of the stop solution. [^14C]” left out, “analysis. […]” for “analysis.”

rectum arginase activity = assay: arginase activity in rectum homogenate; format: biochemical, opossum
Excerpt: as §1, §2, §3

brain arginase activity = assay: arginase activity in brain homogenate; format: biochemical, opossum
Excerpt: as §1
as §2, with “The reactions were stopped by addition of 200 microliters of a stop solution containing 0.25 molar acetic acid, 7 molar urea, and 10 millimolar arginase at pH 4.5. Arginase has essentially no activity at the low pH of the stop solution. [^14C]” left out, “analysis. […]” for “analysis.”

arginase = molecular target: T2, arginase (Rattus norvegicus, UniProt P07824); assay: biochemical; details: Kd from competition binding experiments using N-hydroxyarginine, pH 7.5 and pH 9.0
T2 sequence (P07824 1-323): T1 sequence (P07824 1-323)
Excerpt: Additional evidence for high affinity binding of arginase and ABHA was derived from competition binding experiments using ABHA and N-hydroxyarginine, as monitored by fluorescence spectroscopy. Addition of N-hydroxyarginine to a solution of arginase results in a significant decrease in intrinsic protein fluorescence at 327 nanometers.

rat liver arginase [2] = molecular target: T1, rat liver arginase; assay: continuous chromogenic arginase assay with substrate 1-nitro-3-guanidinobenzene (compound 18); format: biochemical; parameters: made in house; details: 2 millimolar compound 18 as substrate; pseudo-turnover number, smaller = better inhibition
Experimental: The activity of wild-type arginase was monitored spectrophotometrically using a Pharmacia BIOTECH ULTROSPEC™ 2000. Assays were performed in a solution comprising 100 micromolar MnCl2 and 50 millimolar bicine-NaOH (pH 9.0). […] Eadie-Hofstee plots were used to analyze the data.

N[C@@H](CCCCB(O)O)C(=O)O [compound 7, 2(S)-amino-6-boronohexanoic acid]
pIC50 (rat liver arginase [1]): 6.10
pKi (liver arginase activity; arginine fixed at Km, assuming competitive inhibition, read-out: estimated Ki, liver arginase activity): 6.72
times more potent than L-HO-Arg, liver (liver arginase activity; liver homogenate): 5 times
potency against liver arginase activity relative to non-hepatic tissues (liver arginase activity; liver versus IAS, rectum, brain): more potent inhibitor of non-hepatic than hepatic arginase activities
pIC50 (liver arginase activity; liver, read-out: IC50 for inhibition of arginase activity, liver homogenate): 6.36
pIC50 (IAS arginase activity; IAS, read-out: IC50 for inhibition of arginase activity, IAS homogenate): 7.00
pKi (IAS arginase activity; arginine fixed at Km, assuming competitive inhibition, read-out: estimated Ki, IAS arginase activity): 7.30
pKi (rectum arginase activity; arginine fixed at Km, assuming competitive inhibition, read-out: estimated Ki, rectum arginase activity): 7.59
times more potent than L-HO-Arg, rectum (rectum arginase activity; rectum homogenate): 840 times
pIC50 (rectum arginase activity; rectum, read-out: IC50 for inhibition of arginase activity, rectum homogenate): 7.30
pKi (brain arginase activity; arginine fixed at Km, assuming competitive inhibition, read-out: estimated Ki, brain arginase activity): 7.74
times more potent than L-HO-Arg, brain (brain arginase activity; brain homogenate): 800 times
pKd (arginase): ≥ 7.00
tnpseudo (moles of inhibitor/mole of arginase) (rat liver arginase [2]): 0.7 ± 0.1 moles of inhibitor/mole of arginase
